A value given as a limit tells only on which side of the number the result lay.

The target of one assay is His-tagged N-terminal ATP binding domain (amino acid residues 9-236) of HSP90α (Homo sapiens, UniProt P07900). The experiment in a line: HSP90 inhibitor binding potency: TRF competition binding assay. The note with it: Table 1; competition with biotinylated radicicol. In a few lines: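 His-tagged HSP90α N-domain (residues 9-236) incubated 2 h at room temperature with biotinylated radicicol and increasing compound in 50 mM HEPES, 6 mM MgCl2, 20 mM KCl, 0.1% BSA. Bound tracer captured on streptavidin plates, detected with europium anti-His antibody by time-resolved fluorescence; IC50 derived.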
For the molecule `COc1cccc(-c2cc(F)ccc2C2Cc3nc(N)nc(C)c3C(=O)N2)c1` (centres unmarked) [Compound 26, 2-Amino-7-(5-fluoro-3′-methoxy-biphenyl-2-yl)-4-methyl-7,8-dihydro-6H-pyrido[4,3-d]pyrimidin-5-one], the IC50 – broadly, the concentration needed to halve the response being measured – is < 10 µM.

As for `COc1cncc(-c2ccccc2C2Cc3nc(N)nc(C)c3C(=O)N2)n1` (centres unmarked) [Compound 10, 2-Amino-7-[2-(6-methoxy-pyrazin-2-yl)-phenyl]-4-methyl-7,8-dihydro-6H-pyrido[4,3-d]pyrimidin-5-one], the IC50 is < 10 µM.

For `Cc1nc(N)nc2c1C(=O)NC(c1ccc(F)cc1-c1cnn(C)c1)C2` (centres unmarked) [Compound 30, 2-Amino-7-[4-fluoro-2-(1-methyl-1H-pyrazol-4-yl)-phenyl]-4-methyl-7,8-dihydro-6H-pyrido[4,3-d]pyrimidin-5-one], the IC50 is < 10 µM.

Consider `Cc1nc(N)nc2c1C(=O)NC(c1ccc(F)cc1-c1cccc(N(C)C)c1)C2` (centres unmarked) [Compound 34, 2-Amino-7-(3′-dimethylamino-5-fluoro-biphenyl-2-yl)-4-methyl-7,8-dihydro-6H-pyrido[4,3-d]pyrimidin-5-one], for which the IC50 was > 10 µM.

Take `Cc1nc(N)nc2c1C(=O)NC(c1ccc(F)cc1-c1cncc3ccccc13)C2` (centres unmarked) [Compound 18, 2-Amino-7-(4-fluoro-2-isoquinolin-4-yl-phenyl)-4-methyl-7,8-dihydro-6H-pyrido[4,3-d]pyrimidin-5-one]: the IC50 is < 10 µM.

For `COc1cccc(-c2ccccc2[C@H]2Cc3nc(N)nc(C)c3C(=O)N2)n1` [Compound 5, (R)-2-Amino-7-[2-(6-methoxy-pyridin-2-yl)-phenyl]-4-methyl-7,8-dihydro-6H-pyrido[4,3-d]pyrimidin-5-one], the IC50 is < 10 µM.

For the molecule `Cc1nc(N)nc2c1C(=O)NC(c1ccc(F)cc1-c1cccnc1)C2` (centres unmarked) [Compound 28, 2-Amino-7-(4-fluoro-2-pyridin-3-yl-phenyl)-4-methyl-7,8-dihydro-6H-pyrido[4,3-d]pyrimidin-5-one], the IC50 is < 10 µM.

Still in this assay, the particulars now being: Table 2; competition with biotinylated radicicol.
With `Cc1nc(N)nc2c1C(=O)N[C@@H](c1ccc(F)cc1C#N)C2` [Compound 50, 2-((R)-2-Amino-4-methyl-5-oxo-5,6,7,8-tetrahydro-pyrido[4,3-d]pyrimidin-7-yl)-5-fluoro-benzonitrile], the IC50 was > 10 µM.

Take `CCc1nc(N)nc2c1C(=O)N[C@@H](c1ccccc1-c1csc(OC)n1)C2` [Compound 80, (R)-2-Amino-4-ethyl-7-[2-(2-methoxy-thiazol-4-yl)-phenyl]-7,8-dihydro-6H-pyrido[4,3-d]pyrimidin-5-one]: the IC50 is > 10 µM.

With `COc1cccc(-c2cc(F)ccc2[C@H]2Cc3nc(N)nc(C)c3C(=O)N2)c1OC` [Compound 73, (R)-2-Amino-7-(5-fluoro-2,3′-dimethoxy-biphenyl-2-yl)-4-methyl-7,8-dihydro-6H-pyrido[4,3-d]pyrimidin-5-one], the 50% inhibitory concentration (IC50) was < 10 µM.

`CCOc1nc(-c2cc(F)ccc2[C@H]2Cc3nc(N)nc(C)c3C(=O)N2)ncc1F` [Compound 72]: the IC50 is < 10 µM.

Staying with this assay, now noted: Table 3; competition with biotinylated radicicol.
Regarding `COc1cccc(-c2cc(F)ccc2[C@H]2Cc3nc(N)nc(C)c3C(=O)N2Cc2ccccc2F)n1` [Compound 123, (R)-2-Amino-6-(2-fluoro-benzyl)-7-[4-fluoro-2-(6-methoxy-pyridin-2-yl)-phenyl]-4-methyl-7,8-dihydro-6H-pyrido[4,3-d]pyrimidin-5-one], the IC50 is < 10 µM.

In the case of `CCN1C(=O)c2c(C)nc(N)nc2C[C@@H]1c1ccc(F)cc1-c1cccc(OC)n1` [Compound 106, (R)-2-Amino-6-ethyl-7-[4-fluoro-2-(6-methoxy-pyridin-2-yl)-phenyl]-4-methyl-7,8-dihydro-6H-pyrido[4,3-d]pyrimidin-5-one], the IC50 was < 10 µM.

For the molecule `COc1ncc(-c2cc(F)ccc2[C@H]2Cc3nc(N)nc(C)c3C(=O)N2Cc2cccc(Cl)c2)nc1OC` [Compound 117, (R)-2-Amino-6-(3-chloro-benzyl)-7-[2-(5,6-dimethoxy-pyrazin-2-yl)-4-fluoro-phenyl]-4-methyl-7,8-dihydro-6H-pyrido[4,3-d]pyrimidin-5-one], the IC50 is < 10 µM.

Regarding `COc1cncc(-c2cc(F)ccc2[C@H]2Cc3nc(N)nc(C)c3C(=O)N2Cc2ccc(F)cc2)n1` [Compound 161, (R)-2-Amino-6-(4-fluoro-benzyl)-7-[4-fluoro-2-(6-methoxy-pyrazin-2-yl)-phenyl]-4-methyl-7,8-dihydro-6H-pyrido[4,3-d]pyrimidin-5-one], the IC50 was < 10 µM.

Regarding `Cc1nc(N)nc2c1C(=O)N(Cc1ccccc1)[C@@H](c1ccc(F)cc1-c1ncc(Cl)c(O)n1)C2` [Compound 112, (R)-2-Amino-6-benzyl-7-[2-(5-chloro-4-hydroxy-pyrimidin-2-yl)-4-fluoro-phenyl]-4-methyl-7,8-dihydro-6H-pyrido[4,3-d]pyrimidin-5-one], the 50% inhibitory concentration (IC50) is > 10 µM.

For the molecule `Cc1nc(N)nc2c1C(=O)N(Cc1ccccc1)[C@@H](c1ccc(F)cc1-c1cccnc1F)C2` [Compound 143, (R)-2-Amino-6-benzyl-7-[4-fluoro-2-(2-fluoro-pyridin-3-yl)-phenyl]-4-methyl-7,8-dihydro-6H-pyrido[4,3-d]pyrimidin-5-one], the 50% inhibitory concentration (IC50) is < 10 µM.

For `COc1cccc(-c2cc(F)ccc2[C@H]2Cc3nc(N)nc(C)c3C(=O)N2Cc2ccccc2)n1` [Compound 134, (R)-2-Amino-6-benzyl-7-[4-fluoro-2-(6-methoxy-pyridin-2-yl)-phenyl]-4-methyl-7,8-dihydro-6H-pyrido[4,3-d]pyrimidin-5-one], the IC50 is < 10 µM.

Turning to `COc1nc(-c2cc(F)ccc2[C@H]2Cc3nc(N)nc(C)c3C(=O)N2CC(C)C)cnc1N` [Compound 163, (R)-2-Amino-7-[2-(5-amino-6-methoxy-pyrazin-2-yl)-4-fluoro-phenyl]-6-isobutyl-4-methyl-7,8-dihydro-6H-pyrido[4,3-d]pyrimidin-5-one], the IC50 was < 10 µM.

As for `COc1nc(-c2cc(F)ccc2[C@@H]2Cc3nc(N)nc(C)c3C(=O)N2)cnc1N` [Compound 100, (S)-2-Amino-7-[2-(5-amino-6-methoxy-pyrazin-2-yl)-4-fluoro-phenyl]-4-methyl-7,8-dihydro-6H-pyrido[4,3-d]pyrimidin-5-one], the IC50 is > 10 µM.

In the case of `COc1nc(-c2cc(F)ccc2[C@H]2Cc3nc(N)nc(C)c3C(=O)N2)cnc1N` [Compound 101, (R)-2-Amino-7-[2-(5-amino-6-methoxy-pyrazin-2-yl)-4-fluoro-phenyl]-4-methyl-7,8-dihydro-6H-pyrido[4,3-d]pyrimidin-5-one], the IC50 is < 10 µM.

As to `Cc1nc(N)nc2c1C(=O)N(Cc1ccccc1)[C@@H](c1ccc(F)cc1-c1cccc(F)c1F)C2` [Compound 138, (R)-2-Amino-6-benzyl-4-methyl-7-(5,2′,3′-trifluoro-biphenyl-2-yl)-7,8-dihydro-6H-pyrido[4,3-d]pyrimidin-5-one], the IC50 is < 10 µM.

The same assay, now with this note: Table 4; competition with biotinylated radicicol.
`CCc1nc(-c2ccccc2[C@H]2Cc3nc(N)nc(C)c3C(=O)N2)cnc1N` [Compound 235, (R)-2-Ammo-7-[2-(5-amino-6-ethyl-pyrazin-2-yl)-phenyl]-4-methyl-7,8-dihydro-6H-pyrido[4,3-d]pyrimidin-5-one]: the IC50 is < 10 µM.

On to `CCOc1cncc(-c2cc(F)ccc2[C@H]2Cc3nc(N)nc(C)c3C(=O)N2)n1` [Compound 216, (R)-2-Amino-7-[2-(6-ethoxy-pyrazin-2-yl)-4-fluoro-phenyl]-4-methyl-7,8-dihydro-6H-pyrido[4,3-d]pyrimidin-5-one], for which the IC50 is < 10 µM.

For the molecule `CCOc1nc(-c2cc(F)ccc2[C@H]2Cc3nc(N)ncc3C(=O)N2)cnc1N` [Compound 214, (R)-2-Amino-7-[2-(5-amino-6-ethoxy-pyrazin-2-yl)-4-fluoro-phenyl]-7,8-dihydro-6H-pyrido[4,3-d]pyrimidin-5-one], the IC50 is < 10 µM.

Consider `CCOc1nc(-c2cc(F)ccc2[C@H]2Cc3nc(N)nc(C)c3C(=O)N2)cnc1N` [Compound 196, (R)-2-Amino-7-[2-(5-amino-6-ethoxy-pyrazin-2-yl)-4-fluoro-phenyl]-4-methyl-7,8-dihydro-6H-pyrido[4,3-d]pyrimidin-5-one], for which the IC50 was < 10 µM.

Turning to `CCc1nc(N)nc2c1C(=O)N[C@@H](c1ccc(F)cc1-c1csc(OC)n1)C2` [Compound 215, (R)-2-Amino-4-ethyl-7-[4-fluoro-2-(2-methoxy-thiazol-4-yl)-phenyl]-7,8-dihydro-6H-pyrido[4,3-d]pyrimidin-5-one], the half-maximal inhibitory concentration (IC50) was < 10 µM.

Regarding `COc1ccccc1-c1cc(F)ccc1[C@H]1Cc2nc(N)ncc2C(=O)N1` [Compound 176, (R)-2-Amino-7-(5-fluoro-2′-methoxy-biphenyl-2-yl)-7,8-dihydro-6H-pyrido[4,3-d]pyrimidm-5-one], the IC50 is < 10 µM.

With `CCOc1nc(-c2ccccc2[C@H]2Cc3nc(N)ncc3C(=O)N2)cnc1N` [Compound 234, (R)-2-Amino-7-[2-(5-amino-6-ethoxy-pyrazin-2-yl)-phenyl]-7,8-dihydro-6H-pyrido[4,3-d]pyrimidin-5-one], the IC50 is < 10 µM.

As for `CCOc1cccc(-c2cc(F)ccc2[C@H]2Cc3nc(N)nc(C)c3C(=O)N2)n1` [Compound 187, (R)-2-Amino-7-[2-(6-ethoxy-pyridin-2-yl)-4-fluoro-phenyl]-4-methyl-7,8-dihydro-6H-pyrido[4,3-d]pyrimidin-5-one], the IC50 was < 10 µM.

Turning to `CCc1nc(N)nc2c1C(=O)N[C@@H](c1ccccc1-c1cnc(N)c(OC)n1)C2` [Compound 200, (R)-2-Amino-7-[2-(5-amino-6-methoxy-pyrazin-2-yl)-phenyl]-4-ethyl-7,8-dihydro-6H-pyrido[4,3-d]pyrimidin-5-one], the IC50 is < 10 µM.

As to `COc1nc(-c2ccccc2[C@H]2Cc3nc(N)ncc3C(=O)N2)cnc1N` [Compound 229, (R)-2-Amino-7-[2-(5-amino-6-methoxy-pyrazin-2-yl)-phenyl]-7,8-dihydro-6H-pyrido[4,3-d]pyrimidin-5-one], the IC50 was < 10 µM.

The record behind these values is US20070123546A1, “2-amino-7,8-dihydro-6H-pyrido[4,3-d]pyrimidin-5-ones” (Chiron Corporation, priority 2005, published 2007).
